Source: the supplement of paper PMC11451515

Tested on: SEM cells
Assay: cell viability relative to DMSO control; higher = less cytotoxic
Details: 48 h
Outline: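 Viability is a per-plate percentage relative to DMSO wells, with cell-free wells as background. CellTiter-Glo One luminescence was read after 48 h at 37°C on 1536-well plates (5 μl) of NOMO1 or SEM (500 cells/well) or P12-Ichikawa (1000 cells/well) leukemia cells. The cells had been adapted for at least four passages in each medium and pin-dosed with library compounds in DMSO from 47 μM to 0.79 nM in 11 threefold steps.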

[1] = HPLM + 10% dialyzed FBS, 0.000781 µM
[2] = HPLM + 10% dialyzed FBS, 0.00234 µM
[3] = HPLM + 10% dialyzed FBS, 0.00702 µM
[4] = HPLM + 10% dialyzed FBS, 0.0211 µM
[5] = HPLM + 10% dialyzed FBS, 0.0632 µM
[6] = HPLM + 10% dialyzed FBS, 0.19 µM
[7] = HPLM + 10% dialyzed FBS, 0.569 µM
[8] = HPLM + 10% dialyzed FBS, 1.71 µM
[9] = HPLM + 10% dialyzed FBS, 5.12 µM
[10] = HPLM + 10% dialyzed FBS, 15.4 µM
[11] = HPLM + 10% dialyzed FBS, 46.1 µM
[12] = RPMI 5 mM glucose + 10% FBS, 0.000781 µM
[13] = RPMI 5 mM glucose + 10% FBS, 0.00234 µM
[14] = RPMI 5 mM glucose + 10% FBS, 0.00702 µM
[15] = RPMI 5 mM glucose + 10% FBS, 0.0211 µM
[16] = RPMI 5 mM glucose + 10% FBS, 0.0632 µM
[17] = RPMI 5 mM glucose + 10% FBS, 0.19 µM
[18] = RPMI 5 mM glucose + 10% FBS, 0.569 µM
[19] = RPMI 5 mM glucose + 10% FBS, 1.71 µM
[20] = RPMI 5 mM glucose + 10% FBS, 5.12 µM
[21] = RPMI 5 mM glucose + 10% FBS, 15.4 µM
[22] = RPMI 5 mM glucose + 10% FBS, 46.1 µM
[23] = RPMI 5 mM glucose + 10% dialyzed FBS, 0.000781 µM
[24] = RPMI 5 mM glucose + 10% dialyzed FBS, 0.00234 µM
[25] = RPMI 5 mM glucose + 10% dialyzed FBS, 0.00702 µM
[26] = RPMI 5 mM glucose + 10% dialyzed FBS, 0.0211 µM
[27] = RPMI 5 mM glucose + 10% dialyzed FBS, 0.0632 µM
[28] = RPMI 5 mM glucose + 10% dialyzed FBS, 0.19 µM
[29] = RPMI 5 mM glucose + 10% dialyzed FBS, 0.569 µM
[30] = RPMI 5 mM glucose + 10% dialyzed FBS, 1.71 µM
[31] = RPMI 5 mM glucose + 10% dialyzed FBS, 5.12 µM
[32] = RPMI 5 mM glucose + 10% dialyzed FBS, 15.4 µM
[33] = RPMI 5 mM glucose + 10% dialyzed FBS, 46.1 µM

Compound | cell viability [1] [%] | cell viability [2] [%] | cell viability [3] [%] | cell viability [4] [%] | cell viability [5] [%] | cell viability [6] [%] | cell viability [7] [%] | cell viability [8] [%] | cell viability [9] [%] | cell viability [10] [%] | cell viability [11] [%] | cell viability [12] [%] | cell viability [13] [%] | cell viability [14] [%] | cell viability [15] [%] | cell viability [16] [%] | cell viability [17] [%] | cell viability [18] [%] | cell viability [19] [%] | cell viability [20] [%] | cell viability [21] [%] | cell viability [22] [%] | cell viability [23] [%] | cell viability [24] [%] | cell viability [25] [%] | cell viability [26] [%] | cell viability [27] [%] | cell viability [28] [%] | cell viability [29] [%] | cell viability [30] [%] | cell viability [31] [%] | cell viability [32] [%] | cell viability [33] [%]
CCOC(=O)c1c(/C(C#N)=C\N)c2ccc(Cl)c(Cl)c2n1C | 85.8 | 86.1 | 85.2 | 96.9 | 76.5 | 94.1 | 95.5 | 81.7 | 92.6 | 83.4 | 57.4 | 86.7 | 99.2 | 89.9 | 94.1 | 84.6 | 89.7 | 97.8 | 94.4 | 89.6 | 84 | 62 | 80 | 97.7 | 81.8 | 87.8 | 71.6 | 89.3 | 102 | 84.4 | 94.8 | 75.2 | 76.9
O=C(O)c1nn(Cc2ccc(Cl)cc2Cl)c2ccccc12 | 93.5 | 90.1 | 95.5 | 96.3 | 86.5 | 54.8 | 68.7 | 92.3 | 84.7 | 76.2 | 54.7 | 124 | 123 | 132 | 130 | 93.3 | 83.6 | 86.2 | 135 | 95.2 | 94.7 | 81 | 96.1 | 89.9 | 89.1 | 77.2 | 76.3 | 46.9 | 69 | 97.5 | 70.1 | 92.7 | 59.6
C=C1C(=O)O[C@@H]2[C@H]3O[C@]3(C)CC/C=C(\C)CC[C@@H]12 | 96.1 | 99.9 | 122 | 104 | 116 | 115 | 98.5 | 40.5 | 4.45 | 3.12 | 4 | 81.4 | 84.9 | 103 | 93.9 | 87.6 | 73 | 69.5 | 19.9 | 2.98 | 1.9 | 2.67 | 104 | 97 | 102 | 114 | 106 | 105 | 95.9 | 42.4 | 3.46 | 1.79 | 3.03
Cc1ccc(Nc2nccc(N(C)c3ccc4c(C)n(C)nc4c3)n2)cc1[S+](N)(=O)[O-] | 83.9 | 89 | 88 | 105 | 98.2 | 91.7 | 91.3 | 91 | 75.3 | 61.3 | 18.1 | 87.2 | 92.9 | 95.7 | 109 | 86.3 | 91.6 | 77.5 | 79.6 | 63 | 38.9 | 7.79 | 95.9 | 83 | 99.7 | 105 | 92.3 | 101 | 90.2 | 81.8 | 57.5 | 49.2 | 14.8
COc1cc2nc(N3CCN(C(=O)c4ccco4)CC3)nc(N)c2cc1OC | 54.4 | 61.9 | 81.8 | 86.4 | 89.7 | 85.8 | 73 | 91.9 | 87 | 16.4 | 13.6 | 76.2 | 78.4 | 90.6 | 80.6 | 104 | 96.2 | 98.4 | 101 | 105 | 13.5 | 8.2 | 78.2 | 88.3 | 93.8 | 104 | 109 | 81.2 | 91 | 91.4 | 80.2 | 14 | 11.9
CCCCCCCN(CC)CCCC(O)c1ccc(NS(C)(=O)=O)cc1.CCCCCCCN(CC)CCCC(O)c1ccc(NS(C)(=O)=O)cc1.O=C(O)/C=C/C(=O)O (stereo not drawn) | 88.9 | 93.2 | 95.1 | 104 | 74.8 | 109 | 96.7 | 108 | 97.7 | 114 | 15 | 83.9 | 102 | 93.3 | 90.7 | 56.4 | 95.4 | 88.9 | 122 | 96.5 | 94 | 10.3 | 87.4 | 99.9 | 105 | 103 | 74.6 | 90.6 | 112 | 114 | 94.2 | 91.9 | 11.6
CCNC(=O)c1noc(-c2cc(C(C)C)c(O)cc2O)c1-c1ccc(CN2CCOCC2)cc1 | 90.6 | 97.5 | 92.4 | 103 | 31.8 | 21.1 | 20.2 | 20.9 | 19.6 | 17.3 | 14.2 | 95.2 | 102 | 102 | 102 | 27.1 | 21.6 | 19.8 | 19.6 | 19.4 | 14.1 | 7.66 | 101 | 95.7 | 89.5 | 99.5 | 36.1 | 24.9 | 26.4 | 22.6 | 18.6 | 19.2 | 11.2
N#C[C@@H]1C[C@@H]2C[C@@H]2N1C(=O)[C@@H](N)C12CC3CC(CC(O)(C3)C1)C2 |  |  |  |  |  |  |  |  |  |  |  | 113 | 109 | 105 | 104 | 108 | 96.6 | 102 | 87.5 | 79 | 82.2 | 79.4 | 118 | 115 | 110 | 110 | 111 | 110 | 115 | 108 | 108 | 117 | 94.5
